From patent US20260088124A1, “TRANSCRIPTOMIC CLOCKS OF BIOLOGICAL AGE AND LIFESPAN” (The Brigham and Women's Hospital, Inc., priority 2022, published 2026)

Columns and labels:
mouse tissues = experiment: Change of biological age (tAge), lifespan-adjusted multi-tissue transcriptomic clock applied to RNAseq datasets of treated mice (ClockBase); assay type: in vivo; details: for effect on biological age (tAge) versus age-matched control mice: statistically significant effect on tAge, FIG. 6A
Description: Preprocessing of the data prior to applying the clock included filtering of low-expressed genes using soft threshold (genes with less than 5 reads in more than 80% of samples were removed), mapping of gene IDs to the mouse Entrez IDs, RLE normalization (for RNA-seq data), log-transformation, scaling and ranking/YuGene transformation (optionally, for the corresponding clock models). Missing values corresponding to the clock genes not detected in the data were imputed with the average values precalculated during the training of the clock model.
Preprocessed gene expression profiles were used as an input for the clock, and tAges were returned by the model as an output. Differences between tAges of control and treated groups were assessed using linear regression model (for OSKM reprogramming datasets) and independent t-tests (for other applications). When multiple comparisons were assessed, obtained p-values were adjusted with Benjamini-Hochberg method.
To discover candidate interventions that slow down biological aging and extend mammalian lifespan and healthspan, we utilized ClockBase^25 and processed 1,349 publicly available RNAseq datasets corresponding to mouse tissues exposed to various pharmacological, dietary and genetic interventions. For every intervention, we used gene expression data to calculate tAges of subjected mice and compared them with tAges of age-matched control mice. […] In addition to the well-known lifespan-extending interventions, such as rapamycin, they included β3-adrenoceptor agonist CL 316,243^26,27 and the cardiac glycoside ouabain^28.

young UM-HET3 male mice = experiment: Transcriptomic clock of expected maximum lifespan applied to liver and kidney of mice given compounds for 1 month; assay type: in vivo, mouse; details: 1 month treatment, data pooled across tissues, adjusted p-value <0.05, FIG. 6E
Description: To examine if longevity of rodents can be predicted based on gene expression data, we used 1,030 liver samples of mice and rats with known maximum lifespan to construct transcriptomic clock of expected lifespan.
To test if the constructed clock can be used to identify new longevity interventions, we applied it to the liver and kidney samples obtained from young UM-HET3 male mice subjected to 25 different compounds for 1 month together with age-matched controls. These compounds were chosen using a CMAP platform^30 and gene expression signatures of longevity identified in our previous studies^31.

aged rodents = details: cited from earlier work
[1] = cited from earlier work
[2] = system: 25-month-old C57BL/6JNia mice; experiment: Survival study of old mice with compound added to the diet; assay type: in vivo, mouse; details: compound added to diet from 25 months of age; log-rank p-value <0.05; FIGS. 6F-H
30-month-old mice = experiment: Healthspan of old mice (gait speed, frailty index); assay type: in vivo, mouse

Row | Molecule | effect on biological age (tAge) versus age-matched control mice (mouse tissues) | predicted effect on expected (maximum) lifespan according to the transcriptomic longevity clock (young UM-HET3 male mice) | other results
1 | C[C@H](Cc1ccc2c(c1)OC(C(=O)[O-])(C(=O)[O-])O2)NC[C@H](O)c1cccc(Cl)c1.[Na+].[Na+] [CL 316,243] | decrease in biological age |  | 
2 | CCCCCCCCCCCCCCCC(=O)OC[C@H](O)[C@H]1OC(=O)C(O)=C1O [ascorbyl-palmitate] |  | predicted to be beneficial for mouse longevity | 
3 | C[C@@H]1O[C@@H](O[C@H]2C[C@@H](O)[C@]3(CO)[C@H]4[C@H](O)C[C@]5(C)[C@@H](C6=CC(=O)OC6)CC[C@]5(O)[C@@H]4CC[C@]3(O)C2)[C@H](O)[C@H](O)[C@H]1O [ouabain] | decrease in biological age |  | physical function of aged rodents (aged rodents): improve physical function; senolytic activity [1]: exhibit senolytic activity; reduction of biological age (mouse tissues; 3-month treatment, 24-month-old mice, liver, FIG. 6B): ~20%
4 | COc1ccc(-c2ccc3c(N4CCOCC4)nc(N4C[C@@H](C)O[C@@H](C)C4)nc3n2)cc1CO [KU-0063794] |  | predicted to be beneficial for mouse longevity | lifespan of old male mice (survival) [2]: significantly extended lifespan; frailty index (30-month-old mice): decreased; gait speed (30-month-old mice): improved
5 | interleukin 6: interleukin 6 injection | increase of biological age |  | 
6 | COc1ccc(-c2ccc3c(N4CCOC[C@@H]4C)nc(N4CCOC[C@@H]4C)nc3n2)cc1CO [AZD-8055] |  | predicted to be beneficial for mouse longevity | lifespan of old male mice (survival) [2]: significantly extended lifespan
7 | Cc1onc(-c2ccccc2)c1-c1ccc(S(N)(=O)=O)cc1 [valdecoxib] |  | predicted to be beneficial for mouse longevity | 
